Results: article PMC7221574 (Molecules, 2020)
Like-named read-outs stand apart in the source and are kept apart here.

Key:
MCF-7 = assay: In vitro antiproliferative activity, SRB assay, MCF-7; format: cell-based, human; details: for IC50: human breast adenocarcinoma, 72 h, SRB, mean ± SD; for selectivity index (SI) MCF-7: SI = (IC50 BALB/3T3)/(IC50 MCF-7)
Method: (§1) The A549 cell line was purchased from the European Collection of Authenticated Cell Cultures (ECACC, Salisbury, UK). The MCF-7, LoVo and LoVo/DX cell lines was purchased from American Type Culture Collection (ATCC, Manassas, VA, USA). All the cell lines are maintained in the Institute of Immunology and Experimental Therapy (IIET), Wroclaw, Poland.
(§2) Human lung adenocarcinoma cell line was cultured in a mixture of OptiMEM and RPMI 1640 (1:1) medium (IIET, Wroclaw, Poland), supplemented with 5% fetal bovine serum HyClone (GE Healthcare, USA) and 2 mM L-glutamine (Sigma-Aldrich, Germany). Human breast adenocarcinoma cell line was cultured in a mixture of Eagle medium (IIET, Wroclaw, Poland), supplemented with 10% fetal bovine serum, 2 mM L-glutamine, 8 μg/mL insulin and 1% amino acids (Sigma-Aldrich, Germany). Human colon adenocarcinoma cell lines were cultured in a mixture of OptiMEM and RPMI 1640 (1:1) medium (IIET, Wroclaw, Poland), supplemented with 5% fetal bovine serum HyClone (GE Healthcare, USA), 2 mM L-glutamine, 1 mM sodium pyruvate (Sigma-Aldrich, Germany) and 10 μg/100 mL doxorubicin (Accord) for LoVo/DX. Murine embryonic fibroblast cells were cultured in Dulbecco medium (Gibco), supplemented with 10% fetal bovine serum (GE Healthcare, USA) and 2 mM L-glutamine (Sigma-Aldrich, Germany). All culture media contained antibiotics: 100 U/mL penicillin (Polfa-Tarchomin, Poland) and 0.1 mg/mL streptomycin (Sigma Aldrich, Germany). All cell lines were cultured during entire experiment in humid atmosphere at 37 °C and 5% CO2.
(§3) All cell lines were exposed to each tested agent at different concentrations in the range 100–0.001 μg/mL for 72 h. The cells were also exposed to the reference drug cisplatin (Teva Pharmaceuticals, Poland) and doxorubicin (Accord Healthcare Limited, UK). Additionally, all cell lines were exposed to DMSO (solvent used for tested compounds) (POCh, Poland) at concentrations corresponding to those present in dilutions of tested agents. After 72 h sulforhodamine B assay (SRB) was performed.
(§4) After 72 h of incubation with the tested compounds, the cells were fixed in situ by gently adding of 50 μL per well of cold 50% trichloroacetic acid TCA (POCh, Poland) and were incubated at room temperature for one hour. Then the wells were washed four times with water and air dried. Next, 50 μL of 0.1% solution of sulforhodamine B (Sigma-Aldrich, Germany) in 1% acetic acid (POCh, Poland) were added to each well and were incubated at room temperature for 0.5 h. After incubation time, unbound dye was removed by washing plates four times with 1% acetic acid, whereas the stain bound to cells was solubilized with 150 μL of 10 mM Tris base (Sigma-Aldrich, Germany). Absorbance of each solution was read from a Synergy H4 Hybrid Multi-Mode Microplate Reader (BioTek Instruments, USA) at the 540 nm wavelength.

A549 = assay: In vitro antiproliferative activity, SRB assay, A549; format: cell-based, human; details: for IC50: human lung adenocarcinoma, 72 h, SRB, mean ± SD; for selectivity index (SI) A549: SI = (IC50 BALB/3T3)/(IC50 A549)
Method: as §1, §2, §3, §4

BALB/3T3 = assay: In vitro antiproliferative activity, SRB assay, normal fibroblasts BALB/3T3; format: cell-based, murine; details: for IC50: Mus musculus, BALB/3T3, normal murine embryonic fibroblasts, 72 h, SRB, mean ± SD
Method: as §1, §2, §3, §4

LoVo = assay: In vitro antiproliferative activity, SRB assay, LoVo; format: cell-based, human; details: for IC50: 72 h, human colon adenocarcinoma, SRB, mean ± SD; for selectivity index (SI) LoVo: SI = (IC50 BALB/3T3)/(IC50 LoVo)
Method: as §1, §2, §3, §4

LoVo/DX = assay: cells; format: cell-based, human; details: for IC50: Homo sapiens, LoVo/DX, 72 h, read-out: IC50 LoVo/DX; for RI (resistance index): RI = (IC50 for LoVo/DX)/(IC50 for LoVo)
Method: as §1, §2, §3, §4

Structure (SMILES)	IC50 (MCF-7; Homo sapiens, MCF7, 72 h)	selectivity index (SI) MCF-7 (MCF-7)	IC50 (A549; Homo sapiens, A549, 72 h)	IC50 (BALB/3T3)	IC50 (LoVo; Homo sapiens, LoVo)	IC50 (LoVo/DX)	RI (resistance index) (LoVo/DX)	selectivity index (SI) LoVo (LoVo)	times more potent than unmodified colchicine 1 (LoVo/DX; LoVo/DX line)	IC50 (MCF-7)	IC50 (A549)	IC50 (LoVo)	selectivity index (SI) A549 (A549)	selectivity index (SI), cancer cell lines not named at the place (BALB/3T3; SI = (IC50 BALB/3T3)/(IC50 respective cancerous cell line), range over several lines)	IC50 (LoVo/DX; doxorubicin-resistant colon adenocarcinoma subline, SRB, mean ± SD)
CNc1ccc2c(cc1=O)C(NS(=O)(=O)CCN1CCOCC1)CCc1cc(OC)c(OC)c(OC)c1-2 (stereo not shown) [Compound 20]	150 ± 25.3 nM	6.6	800 ± 130 nM	991 ± 280 nM	268 ± 94 nM	44400 ± 23900 nM	165.4	–	–	–	–	–	–	–	–
CNc1ccc2c(cc1=O)[C@@H](NC(=O)c1ccccc1Cl)CCc1cc(OC)c(OC)c(OC)c1-2 [Compound 13]	9.2 ± 0.8 nM	–	6.3 ± 3.2 nM	6.2 ± 1.6 nM	0.7 ± 0.1 nM	9.6 ± 3.3 nM	14.0	over 6	approx. 170 times	–	–	–	–	–	–
CNc1ccc2c(cc1=O)[C@@H](NS(=O)(=O)c1ccc(C(F)(F)F)cc1)CCc1cc(OC)c(OC)c(OC)c1-2 [Compound 21]	134 ± 41.5 nM	–	85.5 ± 5.4 nM	87.6 ± 13.5 nM	73.5 ± 15.7 nM	6120 ± 825 nM	83.3	–	–	–	–	–	–	–	–
CCCCCCCCCCCCCCCC(=O)N[C@H]1CCc2cc(OC)c(OC)c(OC)c2-c2ccc(NC)c(=O)cc21 [Compound 7]	465 ± 187 nM	–	614 ± 194 nM	546 ± 104 nM	62.4 ± 16.9 nM	2440 ± 923 nM	39.0	over 6	–	–	–	–	–	–	–
CNc1ccc2c(cc1=O)C(NS(=O)(=O)N(C)C)CCc1cc(OC)c(OC)c(OC)c1-2 (stereo not shown) [Compound 18]	9.3 to 15.5 nM	–	9.3 to 15.5 nM	14.2 ± 13.2 nM	9.3 to 15.5 nM	540 ± 107 nM	57.8	–	–	15.5 ± 1.7 nM	10.6 ± 0.6 nM	9.3 ± 1.1 nM	–	–	–
CNc1ccc2c(cc1=O)C(NC(=O)CCC(F)(F)F)CCc1cc(OC)c(OC)c(OC)c1-2 (stereo not shown) [Compound 11, 4,4,4-trifluorobutyric amide of 10-N-methylaminocolchicine]	10.4 to 14.6 nM	higher than 5	10.4 to 14.6 nM	81.3 ± 20.4 nM	10.4 to 14.6 nM	290 ± 165 nM	27.8	higher than 5	–	12.7 ± 0.4 nM	14.6 ± 2.1 nM	10.4 ± 1.3 nM	higher than 5	5.6–7.8	–
CNc1ccc2c(cc1=O)[C@@H](N)CCc1cc(OC)c(OC)c(OC)c1-2 [Compound 3, N-deacetyl-10-methylamino-10-demethoxycolchicine]	< 20 nM	–	< 20 nM	19.7 ± 7 nM	< 20 nM	129 ± 11.8 nM	9.2	–	–	19.7 ± 1.7 nM	16.9 ± 2.8 nM	14 ± 1.7 nM	–	–	–
CCC(=O)NC1CCc2cc(OC)c(OC)c(OC)c2-c2ccc(NC)c(=O)cc21 (stereo not shown) [Compound 4]	14.6 ± 1.5 nM	–	14.6 ± 2.4 nM	19.4 ± 4.1 nM	9.7 ± 1.5 nM	272 ± 104 nM	28.0	–	–	–	–	–	–	–	–
CNc1ccc2c(cc1=O)C(NC(=O)CCl)CCc1cc(OC)c(OC)c(OC)c1-2 (stereo not shown) [Compound 9]	9.2 ± 1.4 nM	–	11.6 ± 2.8 nM	11.6 ± 2.3 nM	1.8 ± 0.4 nM	62.4 ± 6.7 nM	35.2	over 6	–	–	–	–	–	–	–
CNc1ccc2c(cc1=O)[C@@H](NC(=O)c1cccc(F)c1)CCc1cc(OC)c(OC)c(OC)c1-2 [Compound 14]	12.6 ± 1.3 nM	–	10.7 ± 0.6 nM	12.6 ± 2.1 nM	8.6 ± 0.8 nM	102 ± 24.9 nM	12.0	–	–	–	–	–	–	–	–
CNc1ccc2c(cc1=O)[C@@H](NC(=O)c1ccncc1)CCc1cc(OC)c(OC)c(OC)c1-2 [Compound 16]	12.8 ± 0.9 nM	–	17.3 ± 3.7 nM	52 ± 29.3 nM	10.8 ± 1.3 nM	947 ± 260 nM	87.4	–	–	–	–	–	–	–	–
CNc1ccc2c(cc1=O)[C@@H](NC(=O)C(Cl)Cl)CCc1cc(OC)c(OC)c(OC)c1-2 [Compound 10]	8.6 ± 1.2 nM	–	8.6 ± 1.3 nM	10.7 ± 1.3 nM	1.5 ± 0.5 nM	38.5 ± 21.6 nM	25.8	over 6	–	–	–	–	–	–	–
COc1cccc2c1C(=O)c1c(O)c3c(c(O)c1C2=O)C[C@@](O)(C(=O)CO)C[C@@H]3O[C@H]1C[C@H](N)[C@H](O)[C@H](C)O1 [Doxorubicin, reference compound]	204 ± 47.8 nM	–	142 ± 46 nM	149 ± 127 nM	99.4 ± 41 nM	–	87.9	–	–	–	–	–	–	–	8730 ± 2540 nM
CNc1ccc2c(cc1=O)[C@@H](NC(=O)c1ccccc1)CCc1cc(OC)c(OC)c(OC)c1-2 [Compound 12]	13 ± 1.3 nM	–	13 ± 1.3 nM	13 ± 3.3 nM	8.5 ± 0.4 nM	99.9 ± 10 nM	11.8	–	–	–	–	–	–	–	–
CNc1ccc2c(cc1=O)C(NC(=O)C(C)C)CCc1cc(OC)c(OC)c(OC)c1-2 (stereo not shown) [Compound 8]	18.8 ± 9.9 nM	1.5–4.0	11.7 ± 1.4 nM	28.1 ± 10.8 nM	7 ± 1.4 nM	171 ± 41.3 nM	24.3	1.5–4.0	–	–	–	–	1.5–4.0	–	–
CCCC(=O)N[C@H]1CCc2cc(OC)c(OC)c(OC)c2-c2ccc(NC)c(=O)cc21 [Compound 5]	14.1 ± 1.4 nM	–	14.1 ± 2.4 nM	16.4 ± 3.5 nM	9.6 ± 0.5 nM	195 ± 51.9 nM	20.2	–	–	–	–	–	–	–	–
CNc1ccc2c(cc1=O)[C@@H](NC(C)=O)CCc1cc(OC)c(OC)c(OC)c1-2 [Compound 2, 10-methylamino-10-demethoxycolchicine]	8.6 ± 1.3 nM	–	10.8 ± 1.3 nM	10.8 ± 1.3 nM	4.3 ± 1.3 nM	271 ± 99.9 nM	63.0	–	–	–	–	–	–	–	–
